Experimental data from article PMC9604483, “Crystal Structure of CYP3A4 Complexed with Fluorol Identifies the Substrate Access Channel as a High-Affinity Ligand Binding Site” (International Journal of Molecular Sciences, 2022).

How the values were obtained:
T224A CYP3A4 [1] = biological target: T1, T224A CYP3A4 (Homo sapiens, UniProt P08684, T224A); assay: Spectral (absorbance) equilibrium titrations of fluorol with CYP3A4; format: binding
T1 construct: made in house
Description: (§1) Because fluorol strongly absorbs in the Soret region (Figure 3A), we conducted reverse rather than direct titrations by adding small amounts of CYP3A4 to the experimental cuvette with 3 μM fluorol solution and to a buffer-containing reference cuvette. Based on the difference absorbance spectra, two spectral phases were distinguished. During the first phase, when [CYP3A4] < 0.5 μM and [fluorol]:[CYP3A4] […], spectral perturbations were detected only in the Soret band (red spectra in Figure 3B,C). The lack of changes in the 380–390 nm region implies that the heme remained in a low-spin state. At [CYP3A4] > 0.5, a decrease in the Soret absorption was accompanied by the appearance of a 385 nm peak, indicating a low-to-high spin transition in the heme. For WT CYP3A4, the first spectral phase was more pronounced, with a ~3-fold larger decrease in the Soret band, whereas the 385 nm peak formed during the second phase was ~20% higher compared to that in the T224A mutant. The difference in the total absorbance change is better seen in Figure 3D, where titration plots for WT and T224A CYP3A4 are compared. The best fittings to the binding isotherms were obtained with a two-binding-site model.
(§2) Spectral Titrations—Equilibrium ligand binding to CYP3A4 was monitored using a Cary 300 spectrophotometer at 23 °C in 50 mM phosphate, pH 7.4, containing 0.6 mg/mL β-cyclodextrin (Santa Cruz Biotechnology, Dallas, TX, USA), using a 10 mm light path cuvette. Ten millimolar stock of fluorol (2-butyl-6-(butylamino)-1H-benzo[de]isoquinoline-1,3(2H)-dione; Exciton, Dayton, OH, USA) dissolved in methanol (ε440 nm = 14.0 mM^−1·cm^−1) was diluted with DMSO to prepare 1–3 mM working solutions. During spectral titrations, small aliquots of WT or T224A CYP3A4 were added to the experimental cuvette with a 3 μM fluorol solution (made from 1 mM stock in DMSO) and to the reference cuvette that contained buffer and the same amount of solvent. Difference absorbance spectra were recorded 5–10 min after fluorol addition, when no further spectral perturbations could be detected. The observed absorbance changes (peak-to-trough difference) were plotted vs. […] and fitted using a nonlinear regression analysis to derive dissociation constants.

WT CYP3A4 [2] = biological target: T2, WT CYP3A4 (Homo sapiens, UniProt P08684); assay: as above; format: binding
T2 construct: made in house
Description: as §1, §2

[3] = Fluorol solubility/aggregation monitored by emission changes; format: physicochemical; conditions: 50 mM potassium phosphate, pH 7.4; with or without 0.6 mg/mL β-cyclodextrin
Description: In our working solution (50 mM potassium phosphate, pH 7.4), dependence of emission intensity on fluorol concentration was linear only within the 0.1–4 μM range (Figure S1A). Addition of 0.6 mg/mL β-cyclodextrin, reported to improve solubility of fluorol, made no difference. For consistency, β-cyclodextrin was included in the assay buffers, while the working concentration of fluorol was limited to 3 μM to avoid/minimize artefacts associated with fluorol aggregation.

T224A CYP3A4 [4] = biological target: T1, T224A CYP3A4; assay: Equilibrium fluorescence titrations of fluorol with CYP3A4; format: binding; conditions: for Kd: read-out: Kd, fluorometric
Source text: (§3) Equilibrium fluorescence titrations were used as an alternative approach for Kd determination. One advantage of fluorol is a large Stokes shift (difference between the absorption and emission maxima; Figure S1B) and sensitivity to environment, as emission becomes more intense and blue-shifted when polarity of the medium decreases (Figure S1C). Moreover, spectral overlap between the emission band of fluorol and Q-bands of CYP3A4 enables fluorescence resonance energy transfer (FRET) to the heme. This process dominates during complex formation with CYP3A4, because emission is decreased rather than enhanced when fluorol transfers from an aqueous media to a more hydrophobic protein environment. One complication that we encountered during fluorescence measurements was a nonspecific decrease in emission, presumably due to adhesion of fluorol to plastic pipette tips. To overcome this problem, before each titration, small amounts of buffer were added to fluorol solution in 1–2 μL increments (8–10 additions; <2% of volume change) and mixed using the same low-retention pipette tip. When no further changes in fluorescence intensity were observed, the same tip was used for addition and mixing of CYP3A4 aliquots (Figure 4A). […] This means that the low-affinity site in T224A CYP3A4 is less solvated and/or lies closer to the heme.
(§4) As a result, in GS8-bound CYP3A4, fluorol might still be able to bind to the channel, albeit in a different orientation (Figure S2C). […] Thus, regardless of what ligand is bound, only the low-affinity site was available for fluorol in both WT and T224A CYP3A4.
(§5) Fluorescence measurements—Equilibrium fluorescence titrations were conducted on a Hitachi F-7000 fluorescence spectrophotometer at 23 °C in 50 mM phosphate buffer, pH 7.4, containing 0.6 mg/mL β-cyclodextrin. Fluorol solution (1 μM) was first titrated with small amounts of buffer using a low-retention plastic pipette tip until no further changes in fluorescence were detected (λex = 440 nm); then, the same tip was used for CYP3A4 additions (6 μM final concentration). […] CYP3A4-dependent changes in fluorescence intensity were plotted vs. CYP3A4 concentration, and Kd values were derived from nonlinear regression fittings.

WT CYP3A4 [5] = biological target: T2, WT CYP3A4; assay: as above; format: binding
Source text: as §3, §4, §5

T1 sequence (P08684 with tags, fused parts or gaps T224A): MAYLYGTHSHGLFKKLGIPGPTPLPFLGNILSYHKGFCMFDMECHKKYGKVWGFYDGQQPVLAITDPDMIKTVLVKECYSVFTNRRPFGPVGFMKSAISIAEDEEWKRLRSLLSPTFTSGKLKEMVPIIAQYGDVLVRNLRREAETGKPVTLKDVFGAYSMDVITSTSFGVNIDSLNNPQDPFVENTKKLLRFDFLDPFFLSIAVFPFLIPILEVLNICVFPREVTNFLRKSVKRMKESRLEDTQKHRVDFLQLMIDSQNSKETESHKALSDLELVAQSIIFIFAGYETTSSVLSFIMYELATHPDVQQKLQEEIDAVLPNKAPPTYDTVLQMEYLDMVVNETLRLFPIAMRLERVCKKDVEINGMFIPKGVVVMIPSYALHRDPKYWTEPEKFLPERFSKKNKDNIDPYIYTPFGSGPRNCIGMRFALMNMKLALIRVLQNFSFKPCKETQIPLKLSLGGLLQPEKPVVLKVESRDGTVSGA
T2 sequence (P08684 with tags, fused parts or gaps): as the sequence (P08684 with tags, fused parts or gaps T224A) above, with A204T counted along it

Decrease in affinities when the hydroxyl group in Thr224 is eliminated (T224A CYP3A4 [1]; T224A vs WT, spectrophotometric Kd): 25–37% | Kd at 3 μM (T224A CYP3A4 [1]; human, ligand-free T224A mutant CYP3A4 protein in buffer, pH 7.4, ligand-free T224A CYP3A4, read-out: Kd, spectrophotometric, low-affinity site): 6.6 ± 0.8 µM | Percentage of the absorbance change due to binding of fluorol to the high-affinity site (T224A CYP3A4 [1]; ligand-free T224A CYP3A4): 14% | Kd (T224A CYP3A4 [1]; ligand-free T224A CYP3A4, read-out: Kd, spectrophotometric, high-affinity site): 0.67 ± 0.12 µM | Difference in affinity between the two independent fluorol binding sites (WT CYP3A4 [2]; WT and T224A CYP3A4, spectrophotometric Kd): 8–10 fold | Decrease in the Soret band during first spectral phase, WT relative to T224A (WT CYP3A4 [2]; [CYP3A4] < 0.5 μM): ~ 3 fold | Height of 385 nm peak formed during second phase, WT compared to T224A (WT CYP3A4 [2]; higher in WT): ~ 20% | Kd at 3 μM (WT CYP3A4 [2]; human, ligand-free WT CYP3A4 protein in buffer, pH 7.4, read-out: Kd, spectrophotometric, low-affinity site): 4.2 ± 0.5 µM | Percentage of the absorbance change due to binding of fluorol to the high-affinity site (WT CYP3A4 [2]; ligand-free WT CYP3A4): 28% | Kd (WT CYP3A4 [2]; ligand-free WT CYP3A4, 3 μM fluorol, 23 °C, 50 mM phosphate pH 7.4, 0.6 mg/mL β-cyclodextrin, read-out: Kd, spectrophotometric, high-affinity site): 0.5 ± 0.04 µM | Concentration range with linear dependence of emission intensity (no aggregation) [3]: 100 to 4000 nM | Ligand-dependent decrease in emission change (T224A CYP3A4 [4]; GS8-bound T224A CYP3A4): 7% | Kd (T224A CYP3A4 [4]; T224A CYP3A4 in presence of 0.4 μM GS8, one-site model): 1.6 ± 0.2 µM | Kd (T224A CYP3A4 [4]; T224A CYP3A4 in presence of 0.4 μM RIT, one-site model): 3.5 ± 0.3 µM | Kd (T224A CYP3A4 [4]; T224A CYP3A4 in presence of 20 μM PRG, one-site model): 1.8 ± 0.2 µM | Ligand-dependent increase in emission change (T224A CYP3A4 [4]; T224A CYP3A4 in the presence of progesterone): 20% | Fluorescence decay in T224A relative to WT (T224A CYP3A4 [4]; larger in T224A, equilibrium titration): ~ 20% | Kd (T224A CYP3A4 [4]; ligand-free T224A CYP3A4, only a low-affinity site detected): 2 ± 0.3 µM | Ligand-dependent decrease in emission change (T224A CYP3A4 [4]; ritonavir-bound T224A CYP3A4): 20% | Reduction of emission quenching (WT CYP3A4 [5]; GS8-bound WT CYP3A4 vs ligand-free): 10% | Kd (WT CYP3A4 [5]; WT CYP3A4 in presence of 0.4 μM GS8, one-site model, read-out: Kd, fluorometric): 2.1 ± 0.3 µM | Kd (WT CYP3A4 [5]; WT CYP3A4 in presence of 0.4 μM RIT, one-site model, read-out: Kd, fluorometric): 4.8 ± 0.6 µM | Kd (WT CYP3A4 [5]; WT CYP3A4 in presence of 20 μM PRG, one-site model, read-out: Kd, fluorometric): 2.4 ± 0.2 µM | Kd at 1 μM (WT CYP3A4 [5]; human, ligand-free WT CYP3A4 protein in buffer, pH 7.4, ligand-free WT CYP3A4, read-out: Kd, fluorometric, low-affinity site): 2.4 ± 0.4 µM | Percentage of the fluorescence change due to binding of fluorol to the high-affinity site (WT CYP3A4 [5]; ligand-free WT CYP3A4): 25% | Kd (WT CYP3A4 [5]; ligand-free WT CYP3A4, 1 μM fluorol, 23 °C, pH 7.4, read-out: Kd, fluorometric, high-affinity site): 0.15 ± 0.03 µM | Reduction of emission quenching (WT CYP3A4 [5]; ritonavir-bound WT CYP3A4 vs ligand-free): 30%
SMILES: CCCCNc1ccc2c3c(cccc13)C(=O)N(CCCC)C2=O [fluorol, 2-butyl-6-(butylamino)-1H-benzo[de]isoquinoline-1,3(2H)-dione]
